Test results reported in US8637683B2, “Macrocyclic lactone derivatives for the treatment of cancer” (Piramal Enterprises Limited, priority 2009, dated 2014).
In brackets after ≈: the same amount, converted by molar mass. Several values for one entry are separate records, joined by “and”; a condition that tells them apart may be missing. Equal values may be shown once. Read-outs that look alike come from different tables or passages of the source.

Legend:
LIXF 575L = assay: Monolayer assay (modified propidium iodide), LIXF 575L; format: cell-based, human; conditions: Liver, 4 days of treatment
Text: (§1) Oncotest GmbH, Germany's proprietary tumor cell line panel comprises 40 cell lines. These cell lines were derived from 15 different tumor histotypes, each represented by 1 to 6 different cell lines. Cell lines were established from cancer of the bladder (3), colon (4), head and neck (1), lung (6), breast (3), pancreas (3), prostate (4), ovary (2), kidney (3), liver (1), stomach (1) and the uteri body (1), as well as from melanoma (3), sarcoma (2) and pleuramesothelioma (3). Out of these 40 cell lines, 24 cell lines were established at Oncotest, from patient-derived tumor xenografts. […]
(§2) Stock solutions of the test compounds (330 μg/mL in DMSO) were prepared and stored in small aliquots (200 μL) at −20° C. […] Each concentration was evaluated in triplicate. […]
(§3) Cells were plated in 96-well flat-bottom microtiter plates at a cell density of 4,000 to 10,000 cells/well. […] To measure the viable cell number, the remaining adherent cells were killed and permeabilized by repeated freezing and thawing and PI fluorescence was measured using the Cytofluor 4000 microplate reader (excitation λ=530 nm, emission λ=620 nm), which was a measure for the number of cells which survived treatment. […] IC-values were calculated based on the principle of linear two-point curve fit. […]

MEXF 1341L = assay: Monolayer assay (modified propidium iodide), MEXF 1341L; format: cell-based, human; conditions: Melanoma, 4 days of treatment
Text: as §1, §2, §3

MEXF 462NL = assay: Monolayer assay (modified propidium iodide), MEXF 462NL; format: cell-based, human; conditions: Melanoma, 4 days of treatment
Text: as §1, §2, §3

[1] = tested on: panel of 40 human tumor cell lines; assay: Monolayer assay, panel of 40 human tumor cell lines; format: cell-based
Text: (§4) Oncotest GmbH, Germany's proprietary tumor cell line panel comprises 40 cell lines. These cell lines were derived from 15 different tumor histotypes, each represented by 1 to 6 different cell lines. Cell lines were established from cancer of the bladder (3), colon (4), head and neck (1), lung (6), breast (3), pancreas (3), prostate (4), ovary (2), kidney (3), liver (1), stomach (1) and the uteri body (1), as well as from melanoma (3), sarcoma (2) and pleuramesothelioma (3). Out of these 40 cell lines, 24 cell lines were established at Oncotest, from patient-derived tumor xenografts. The other 16 cell lines were either provided by the NCI (Bethesda; MD, USA) or were purchased from ATCC (Rockville, Md., USA) or DSMZ (Braunschweig, Germany).
(§5) Cell lines were routinely passaged once or twice weekly and maintained in culture for upto 20 passages. All cells were grown at 37° C. in a humidified atmosphere with 5% CO2 in RPMI 1640 medium supplemented with 10% (v/v) fetal calf serum (FCS) and 0.1 mg/mL gentamicin (medium and all other components from PAA, Cölbe, Germany). Authenticity of all cell lines was proven at the DSMZ by STR (short tandem repeat) analysis, a PCR based DNA-fingerprinting methodology.
Stock solutions of the test compounds (330 μg/mL in DMSO) were prepared and stored in small aliquots (200 μL) at −20° C. An aliquot of the stock solution was thawed on the day of use and stored at room temperature prior to and during dosing. The subsequent dilutions were done with complete RPMI 1640 cell culture medium as follows: the stock solution was diluted 1:22 followed by serial dilutions finally resulting in a (compared to the test concentration) 15-fold higher concentration. For the final dilution step (1:15), 10 μL/well of the respective compound solution was directly added to 140 μL/well culture medium. Test compounds were tested at […]. Each concentration was evaluated in triplicate.
A modified propidium iodide assay was used to assess the effect of the test compounds on the growth of the human tumor cell lines and was designed as in reference, Anti-cancer Drugs, 6, 522-532, (1995), the disclosure of which is incorporated by reference for the teaching of the assay.
Cells were plated in 96-well flat-bottom microtiter plates at a cell density of 4,000 to 10,000 cells/well. After a 24 h recovery period to allow the cells to resume exponential growth, the test compounds were applied at five concentrations in log increments in triplicates in two independent runs. After 4 days of treatment, the medium with/without test compounds including all floating (i.e., dead) cells was aspirated and replaced by 200 μL of an aqueous propidium iodide (PI) solution (7 μg/mL). To measure the viable cell number, the remaining adherent cells were killed and permeabilized by repeated freezing and thawing and PI fluorescence was measured using the Cytofluor 4000 microplate reader (excitation λ=530 nm, emission λ=620 nm), which was a measure for the number of cells which survived treatment. Pharmacological effects on cell proliferation and survival were expressed as Test/Control×100 (% T/C) values, with T and C representing the fluorescence read-outs for wells with and without test compound, respectively, i.e. T/C represents the ratio of viable cell numbers following incubation of cell line with/without test compound. Based on the T/C values IC50 and IC70 values, being the drug concentration necessary to inhibit cell growth by 50% (T/C=50%) and 70% (T/C=30%), respectively, were determined by plotting compound concentration versus cell viability (T/C). IC-values were calculated based on the principle of linear two-point curve fit. […]

CAL 27 = assay: Monolayer assay (modified propidium iodide), CAL 27; format: cell-based, human; conditions: CAL 27, Head and Neck, 4 days of treatment
Text: as §1, §2, §3

HCT 116 = assay: Monolayer assay (modified propidium iodide), HCT 116; format: cell-based, human; conditions: HCT 116, Colon, 4 days of treatment
Text: as §1, §2, §3

PXF 1118L = assay: Monolayer assay (modified propidium iodide), PXF 1118L; format: cell-based, human; conditions: Pleuramesothelioma, 4 days of treatment
Text: as §1, §2, §3

HT 29 = assay: Monolayer assay (modified propidium iodide), HT 29; format: cell-based, human; conditions: HT 29, Colon, 4 days of treatment
Text: as §1, §2, §3

DU 145 = assay: Monolayer assay (modified propidium iodide), DU 145; format: cell-based, human; conditions: DU 145, Prostate, 4 days of treatment
Text: as §1, §2, §3

RXF 393NL = assay: Monolayer assay (modified propidium iodide), RXF 393NL; format: cell-based, human; conditions: Renal, 4 days of treatment
Text: as §1, §2, §3

MEXF 276L = assay: Monolayer assay (modified propidium iodide), MEXF 276L; format: cell-based, human; conditions: Melanoma, 4 days of treatment
Text: as §1, §2, §3

LXF 629L = assay: Monolayer assay (modified propidium iodide), LXF 629L; format: cell-based, human; conditions: Lung, 4 days of treatment
Text: as §1, §2, §3

22RV1 = assay: Monolayer assay (modified propidium iodide), 22RV1; format: cell-based, human; conditions: 22RV1, Prostate, 4 days of treatment
Text: as §1, §2, §3

CXF 269L = assay: Monolayer assay (modified propidium iodide), CXF 269L; format: cell-based, human; conditions: Colon, 4 days of treatment
Text: as §4
as §5, with “Authenticity of all cell lines was proven at the DSMZ by STR (short tandem repeat) analysis, a PCR based DNA-fingerprinting methodology.” left out
as §2
as §3, with “treatment. Pharmacological effects on cell proliferation and survival were expressed as Test/Control×100 (% T/C) values, with T and C representing the fluorescence read-outs for wells with and without test compound, respectively, i.e. T/C represents the ratio of viable cell numbers following incubation of cell line with/without test compound.” for “treatment.”

SACS2 = assay: Monolayer assay (modified propidium iodide), SACS2; format: cell-based, human; conditions: SACS2, Sarcoma, 4 days of treatment
Text: as §1, §2, §3

MDA 231 = assay: Monolayer assay (modified propidium iodide), MDA 231; format: cell-based, human; conditions: MDA 231, Mammary, 4 days of treatment
Text: as §4
as §5, with “Authenticity of all cell lines was proven at the DSMZ by STR (short tandem repeat) analysis, a PCR based DNA-fingerprinting methodology.” left out
as §2
as §3, with “treatment. Pharmacological effects on cell proliferation and survival were expressed as Test/Control×100 (% T/C) values, with T and C representing the fluorescence read-outs for wells with and without test compound, respectively, i.e. T/C represents the ratio of viable cell numbers following incubation of cell line with/without test compound.” for “treatment.”

C/C=C/C(O)C(C)/C=C/C(=N\O)C(C)C(O)C(C)C1OC(=O)/C(OC)=C/C(C)=C/C(C)C(O)C(CC)C(O)C(C)C/C(C)=C/C=C/C1OC (stereo not shown) [Example 7, (3Z,5E,13E,15E)-18-((5Z,6E,10E)-3,9-Dihydroxy-5-(hydroxymino)-4,8-dimethyldodeca-6,10-dien-2-yl)-9-ethyl-8,10-dihydroxy-3,17-dimethoxy-5,7,11,13-tetramethyl oxacyclooctadeca-3,5,13,15-tetraen-2-one]
IC50 (LIXF 575L; Homo sapiens, 96 h): < 0.1 ng/mL
IC70 (LIXF 575L): 2.0 ng/mL (≈ 2.9 nM)
IC50 (MEXF 1341L; Homo sapiens, 96 h): 0.2 ng/mL (≈ 0.29 nM)
IC70 (MEXF 1341L): 2.0 ng/mL (≈ 2.9 nM)
IC50 (MEXF 462NL; Homo sapiens, 96 h): 3 ng/mL (≈ 4.35 nM)
IC70 (MEXF 462NL): 6.0 ng/mL (≈ 8.7 nM)
activity in all cell lines as tested ([1]; 40 cell lines): concentration-dependent activity
tumor selectivity ([1]; 40 cell lines): remarkable level of tumor selectivity
Tumor selectivity: number of cell lines among the histotype with individual IC70 <mean IC70 ([1]; Bladder): 2 out of 3 and 2/3
Tumor selectivity: number of cell lines among the histotype with individual IC70 <mean IC70 ([1]; Breast (mammary)): 2/3 and 3/3
Tumor selectivity: number of cell lines among the histotype with individual IC70 <mean IC70 ([1]; Colon): 4/4
IC50 ([1]; Homo sapiens, all 40 cell lines, read-out: IC50): < 1000 ng/mL
Tumor selectivity: number of cell lines among the histotype with individual IC70 <mean IC70 ([1]; Lung): 5/6
Tumor selectivity: number of cell lines among the histotype with individual IC70 <mean IC70 ([1]; Melanoma): 2/3
Tumor selectivity: number of cell lines among the histotype with individual IC70 <mean IC70 ([1]; Pleurameso): 1/3
Tumor selectivity: number of cell lines among the histotype with individual IC70 <mean IC70 ([1]; Prostate): 2/4
IC70 ([1]; all 4 colon cancer cell lines): ≤ 5 ng/mL
Mean IC70 ([1]; mean over panel of 40 human tumor cell lines): 9.1 ng/mL
IC50 ([1]; mean over panel of 40 human tumor cell lines, read-out: Mean IC50): 1.1 ng/mL (≈ 1.59 nM)
IC70 (CAL 27): 1.0 ng/mL (≈ 1.45 nM)
IC50 (CAL 27; Homo sapiens, 96 h): < 0.1 ng/mL
IC70 (HCT 116): 5.0 ng/mL (≈ 7.25 nM)
IC50 (HCT 116; Homo sapiens, 96 h): 3 ng/mL (≈ 4.35 nM)
IC50 (PXF 1118L; Homo sapiens, 96 h): 432 ng/mL (≈ 626 nM)
IC70 (PXF 1118L): >1000 ng/mL
IC70 (HT 29): 0.9 ng/mL (≈ 1.3 nM)
IC50 (HT 29; Homo sapiens, 96 h): 0.4 ng/mL (≈ 0.58 nM)
IC70 (DU 145): 0.6 ng/mL (≈ 0.87 nM)
IC50 (DU 145; Homo sapiens, 96 h): < 0.1 ng/mL
IC50 (RXF 393NL; Homo sapiens, 96 h): 7 ng/mL (≈ 10.1 nM)
IC70 (RXF 393NL): 1000 ng/mL (≈ 1450 nM)
IC50 (MEXF 276L; Homo sapiens, MEXF276L, 96 h): 1 ng/mL (≈ 1.45 nM)
IC70 (MEXF 276L): 251.0 ng/mL (≈ 364 nM)
IC50 (LXF 629L; Homo sapiens, 96 h): 0.1 ng/mL (≈ 0.145 nM)
IC70 (LXF 629L): 1.0 ng/mL (≈ 1.45 nM)
IC70 (22RV1): 9.0 ng/mL (≈ 13 nM)
IC50 (22RV1; Homo sapiens, 96 h): 4 ng/mL (≈ 5.8 nM)
IC70 (CXF 269L): 0.2 ng/mL (≈ 0.29 nM)
IC50 (CXF 269L; Homo sapiens, 96 h): < 0.1 ng/mL
IC50 (SACS2; Homo sapiens, 96 h): 5 ng/mL (≈ 7.25 nM)
IC70 (SACS2): >1000 ng/mL
IC50 (MDA 231; Homo sapiens, MDA-MB-231, 96 h): < 0.1 ng/mL
IC70 (MDA 231): <0.1 ng/mL
